Source: patent publication US20040259764A1, “Reticulocyte depletion signatures” (priority 2002, published 2004)
Like-named read-outs stand apart in the source and are kept apart here. Marks after values point to notes of the source that are not given here.

Legend:
[1] = system: Reticulocyte Depletion Signature (Alas2 and peripherin probes), bone marrow
Source text: (§1) Compound dosing was based on the acute dose LD50s recorded in published reference or literature sources. […] The MTD (maximum tolerated dose) was then selected as the dose at which the animals […] 5-10% body weight during the 5-day range finding study. […] In addition, the clinical observations must show no or mild clinical signs during the whole of the range-finding study. At the next highest dose, signs and symptoms of adverse effects and exceeding those of the MTD should be seen to occur. Should these criteria not be met, the range-finding study is repeated using a modified dose range.
(§2) After determination of the MTD and FED for a compound, each compound was dissolved in a vehicle for administration on day 1 of the study (additional daily doses were stored as frozen aliquots from this initial formulation). Each compound was administered to three individual male Sprague-Dawley rats for each of the two doses (MTD and FED) for one of four different times (0.25 day, 1 day, 3 days, and 5 days), yielding a total of up to 24 animals per compound study. Vehicle choice was based on solubility of the compound, effect of food on adsorption, and the vehicles used in the literature reports examined during the FED selection investigations, described above. Generally, the route and vehicle in which the FED was defined are used. When there was a choice of routes and vehicles, oral routes were chosen over injection routes. Many compounds, especially oncolytics, are only administerable intravenously. In such cases, the compound was administered as an intravenous formulation into the tail vein. Orally administered compounds were given dissolved in either water, 1% carboxymethycellulose (CMC) or corn oil. Intravenously and intraperitoneally administered compounds were given in 0.9% saline. Subcutaneously administered compounds were given in corn oil. Animal body weights were determined at 1 day and, where appropriate, at 4 days, before necropsy, and clinical observations were made on a daily basis. Control animals were dosed with vehicle only. Three male animals were used for each dose and time combination used for the compound treatment.
(§3) Tissue harvest and handling: After the allocated treatment time, the tissues from the animals were harvested. […] All the tissues collected were divided to provide samples for histopathological analyses, and the remainder of each tissue was then snap-frozen.
(§4) Preparation of enriched mRNA: Punch biopsies were taken from the frozen tissues and were completely homogenized before being processed using the MagNA Pure robot. (Roche Diagnostics Corp., Indianapolis, Ind.) in combination with the MagNA Pure LC RNA Isolation kit II (Roche Diagnostics Corp). The amount of lysis buffer was adjusted to allow 1 ml per 50 mg for liver tissue, or 1 ml per 80 mg for all other tissues. After complete homogenization and before loading of the samples into the 32-well MagNA Pure plate, the samples were syringed 5-6 times using a 20-gauge 3-ml syringe to ensure a smooth solution for robotic processing. Tissue sample processing was performed in duplicate wells (loading 150 μl of homogenized sample and 150 μl of additional lysis buffere to each well) of the MagNA Pure LC, which is programmed to extract mRNA using oligo-dT selection technology into a final elution volume of 100 μl. Poly A(+) RNA sample concentration was performed using a standard ethanol precipitation protocol in the presence of glycogen (50 μg/ml). After precipitation the final purified mRNA sample was resuspended in 7 μl DEPC-treated water and quantified using a Ribogreen high-range assay (Molecular Probes) on the Victor-Wallace II Fluorometer (Perkin-Elmer).

[2] = system: Reticulocyte Depletion Signature (Alas2 and peripherin probes), spleen
Source text: as §1, §2, §3, §4

[3] = system: two specific reticulocyte-enriched transcripts
Method: as §2, §3
as §4, with “(Perkin-Elmer). Additionally, the integrity of each mRNA sample was determined using the Agilent 2100 BioAnalyzer (Agilent Technologies, Palo Alto, Calif.) in combination with the RNA 6000 Nano Lab Chip kit (Agilent Technologies).” for “(Perkin-Elmer).”
0.6-20 μg of enriched mRNA from different tissue sources was processed into cRNA in the presence of different bacterial control mRNAs (1.5pg FixA, 5pgYjek, 5pg AraB, 15pg EntF, 50pg FixB, 150pg HisB, 500pg LeuB, 1500pg Gnd) and with the modification of the addition of 1.0 μl of 100 pmol/μl HPLC-purified T7-(dT)24 oligonucleotide primer instead of a 0.5 pmol/μl unpurified T7-(dT)24 primer.
The slides were rinsed in distilled, deionized water (dd-H2O) with 0.05% Tween-20® twice for 5 seconds each before they were dried by centrifugation and stored in light protective slide boxes.

[4] = system: Reticulocyte Depletion Signature (Alas2 and peripherin probes), liver
Source text: as §1, §2, §3, §4

[5] = bone marrow data, signature derived from liver, * = p < 0.01
[6] = spleen data, signature derived from liver, * = p < 0.01
[7] = liver data, highest training treatment normalised to 100, * = p < 0.01
[8] = rat liver, dose, route and vehicle per compound as

Row | SMILES | SPS (Bone Marrow) ([1]; rat, in vivo) | SPS (Spleen) ([2]; rat, in vivo) | signal intensity for two specific reticulocyte-enriched transcripts as compared with vehicle-treated control animals ([3]; rat, in vivo) | Signature Projection Score (SPS) ([4]; rat, in vivo) | SPS (Bone Marrow) [1, 5] | SPS (Spleen) [2, 6] | Signature Projection Score (SPS) [4, 7] | signal intensity for two specific reticulocyte-enriched transcripts as compared with vehicle-treated control animals [3, 8]
1 | CN(C)c1nc(N(C)C)nc(N(C)C)n1 [ALTRETAMINE] | 0 | 0 | – | – | – | – | – | –
2 | Cn1cnc([N+](=O)[O-])c1Sc1ncnc2nc[nH]c12 [AZATHIOPRINE, 6-((1-methyl-4-nitro-1H-imidazol-5-yl)thio)-1H-purine] | 27 | 122* | significantly decreased | 90* | – | – | – | –
3 | CC(C)(c1ccc(O)cc1)c1ccc(O)cc1 [BISPHENOL A] | 0 | 0 | – | – | – | – | – | –
4 | Oc1c(Cl)cc(Cl)cc1Sc1cc(Cl)cc(Cl)c1O [BITHIONOL] | 0 | 27 | – | – | – | – | – | –
5 | CS(=O)(=O)OCCCCOS(C)(=O)=O [BUSULFAN] | 0 | 34 | – | 43 | – | – | – | –
6 | N.N.O=C([O-])C1(C(=O)[O-])CCC1.[Pt+2] [CARBOPLATIN] | – | – | – | – | 0 | 0 | – | –
7 | O=NN(CCCl)C(=O)NCCCl [CARMUSTINE] | – | – | – | – | 0 | 0 | 42 | –
8 | O=C(O)CCCc1ccc(N(CCCl)CCCl)cc1 [CHLORAMBUCIL] | – | – | – | – | 0 | 0 | 33 | –
9 | N.N.[Cl][Pt][Cl] [CISPLATIN] | – | – | – | – | 0 | 0 | – | –
10 | Nc1ccn([C@@H]2O[C@H](CO)[C@@H](O)[C@@H]2O)c(=O)n1 [CYTARABINE, 4-amino-1-β-D-arabinofuranosyl-2(1H)-pyrimidinone] | 0 | 17 | significantly decreased | 58* | – | – | – | –
11 | CC/C(=C(/CC)c1ccc(O)cc1)c1ccc(O)cc1 [DIETHYLSTILBESTROL] | 0 | 88* | – | 33 | – | – | – | –
12 | COc1cccc2c1C(=O)c1c(O)c3c(c(O)c1C2=O)C[C@@](O)(C(=O)CO)C[C@@H]3O[C@H]1C[C@H](N)[C@H](O)[C@H](C)O1 [DOXORUBICIN, (8S-cis)-10-((3-amino-2,3,6-trideoxy-γ-L-lyxo-hexopyranosyl)oxy)-7,8,9,10-tetrahydro-6,8,11-trihydroxy-8-(hydroxyacetyl)-1-methoxy-5,12-naphthacene-dione] | 0 | 138* | significantly decreased | 95* | – | – | – | –
13 | COc1cc([C@@H]2c3cc4c(cc3[C@@H](O[C@@H]3O[C@@H]5CO[C@@H](C)O[C@H]5[C@H](O)[C@H]3O)[C@H]3COC(=O)[C@H]23)OCO4)cc(OC)c1O [ETOPOSIDE, 9-((4,6-0-ethylidene-β-D-glucopyranosyl)oxy)-5,8,8a,9-tetrahydro-5-(4-hydroxy-3,5,-dimethoxyphenyl)furo[3′,4′:6,7]naphtha[2,3-d]-1,3-dioxol-6(5acH)-one] | 151* | 146* | significantly decreased | 100* | – | – | – | –
14 | NC(=O)NO [HYDROXYUREA, Hydroxyurea] | – | – | – | – | 0 | 130* | 71* | significantly decreased
15 | O=P1(NCCCl)OCCCN1CCCl (centres unmarked) [IFOSFAMIDE, N,3-bis(2-chloroethyl)tetrahydro-2H-1,3,2-oxazaphosphorin-2-amine 2-oxide] | – | – | – | – | 27 | 24 | 95* | significantly decreased
16 | Cc1oncc1C(=O)Nc1ccc(C(F)(F)F)cc1 [LEFLUNOMIDE] | 0 | 71* | – | 22 | – | – | – | –
17 | O=NN(CCCl)C(=O)NC1CCCCC1 [LOMUSTINE] | – | – | – | – | 0 | 0 | 18 | –
18 | CN(Cc1cnc2nc(N)nc(N)c2n1)c1ccc(C(=O)N[C@@H](CCC(=O)O)C(=O)O)cc1 [METHOTREXATE] | 0 | 148* | – | 72* | – | – | – | –
19 | CN(C)C=O [N,N-DIMETHYLFORMAMIDE] | – | – | – | – | 0 | 0 | – | –
20 | CCN(CC)N=O [N-NITROSODIETHYLAMINE] | – | – | – | – | 0 | 0 | – | –
21 | Nc1nc2nc[nH]c2c(=S)[nH]1 [THIOGUANINE, 2-amino-1,7-dihydro-6H-purine-6-thione] | 40 | 121* | significantly decreased | 99* | – | – | – | –
22 | CCC1=C[C@@H]2CN(C1)Cc1c([nH]c3ccccc13)[C@@](C(=O)OC)(c1cc3c(cc1OC)N(C)[C@H]1[C@@](O)(C(=O)OC)[C@H](OC(C)=O)[C@]4(CC)C=CCN5CC[C@]31[C@@H]54)C2 [VINORELBINE] | 132* | – | – | – | – | – | – | –
23 | CCCSc1ccc2nc(NC(=O)OC)[nH]c2c1 [albendazole, (5-(propylthio)-1H-benzimidazol-2yl)-carbamic acid methyl ester] | – | – | – | – | – | – | – | significantly decreased
